# Measured values from patent US11926620B1, “1-Cyclopropyl-6-fluoro-4-oxo-7-(4-((2-thioxobenzo[d]oxazol-3(2H)-yl)methyl)piperazin-1-yl)-1,4-dihydroquinoline-3-carboxylic acid as an antimicrobial and anticancer compound” (KING FAISAL UNIVERSITY, priority 2023, dated 2024).
# Legend:
# [1] = tested on: human osteosarcoma cells (MG-63); assay: Cytotoxicity by SRB assay, MG-63; type: cell-based; details: MG-63 cells, 0.01 μM to 100 μM for 72 h, result in words
# Protocol: (§1) The human prostate cancer cells (PC3) and human osteosarcoma cells (MG-63) were obtained from Nawah Scientific Inc. (Mokatam, Cairo, Egypt) and cultured in DMEM (Dulbecco's modified eagle's medium), Gibco, USA, supplemented with fetal bovine serum (FBS) at a concentration of 10% and 100 U/mL of penicillin and streptomycin (PS). The Cells were incubated at 37° C. in a humidified environment that contained 5% CO2. Cells were seeded in 96-well plates as aliquots of 100 μL cell suspension and incubated in a complete media for 24 h. afterward, cells were treated with 1-Cyclopropyl-6-fluoro-4-oxo-7-(4-((2-thioxobenzo[d]oxazol-3(2H)-yl)methyl)piperazin-1-yl)-1,4-dihydroquinoline-3-carboxylic acid at diverse concentrations ranging from 0.01 μM to 100 μM for 72 h. Then, cells were fixed at 4° C. for one hour with 150 μL of 10% trichloroacetic acid (TCA). […] Then, 150 μL of Tris pH 10.5 (10 mM) was added, and the absorbance was measured at 540 nm using a BMG LABTECH®-FLUOstar Omega microplate reader (Ortenberg, Germany). Half maximal inhibitory concentrations (IC50) values were calculated for each experiment using GraphPad Prism 6 software. […] The inhibition was calculated using the following equation: Inhibition %=100−Average Viability
# [2] = tested on: Aspergillus flavus; assay: Agar plate disc-diffusion, Aspergillus flavus; type: cell-based; details: disc 10 μL of 10 mg/mL in DMSO, 72 h, result in words
# Protocol: (§2) The antimicrobial properties of the synthesized compounds were studied by the method of agar plate disc-diffusion. Sterilized filter papers (6 mm in diameter) were wetted with 10 μL of a solution of each compound to be tested, containing 10 mg/mL in DMSO, and the discs were allowed to air dry. The discs were then placed onto the surface of agar plates (nutrient agar for bacteria and Sabouraud's dextrose agar for fungi) seeded with the test organism. Each plate contained 15 mL of the agar medium, previously seeded with 0.2 mL of the broth culture of each organism pregrown for 18 h. The plates were incubated at 37° C. for 48 h, and 72 h for fungi. The inhibition zones were measured in mm. Discs impregnated with DMSO were used as a control, and its inhibition zone was subtracted from the tested compound actual inhibition zone.
# [3] = tested on: Staphylococcus aureus; assay: Agar plate disc-diffusion, Staphylococcus aureus; type: cell-based; details: gram positive Staphylococcus aureus; disc 10 μL of 10 mg/mL in DMSO, 37° C., 48 h; result in words
# Protocol: as §2
# [4] = tested on: Bacillus cereus; assay: Agar plate disc-diffusion, Bacillus cereus; type: cell-based; details: gram positive Bacillus cereus; disc 10 μL of 10 mg/mL in DMSO, 37° C., 48 h; result in words
# Protocol: as §2
# [5] = tested on: Pseudomonas aeruginosa; assay: Agar plate disc-diffusion, Pseudomonas aeruginosa; type: cell-based; details: gram-negative Pseudomonas aeruginosa; disc 10 μL of 10 mg/mL in DMSO, 37° C., 48 h; result in words
# Protocol: as §2
# [6] = tested on: Chrysosporium keratinophilum; assay: Agar plate disc-diffusion, Chrysosporium keratinophilum; type: cell-based; details: disc 10 μL of 10 mg/mL in DMSO, 72 h, result in words
# Protocol: as §2
# [7] = tested on: Escherichia coli; assay: Agar plate disc-diffusion, Escherichia coli; type: cell-based; details: gram-negative Escherichia coli; disc 10 μL of 10 mg/mL in DMSO, 37° C., 48 h; result in words
# Protocol: as §2
# [8] = tested on: human prostate cancer cells (PC3); assay: Cytotoxicity by SRB assay, PC3; type: cell-based; details: 0.01 μM to 100 μM for 72 h, result in words
# Protocol: as §1
smiles,measurement,setting,value
"O=C(O)c1cn(C2CC2)c2cc(N3CCN(Cn4c(=S)oc5ccccc54)CC3)c(F)cc2c1=O [1-cyclopropyl-6-fluoro-4-oxo-7-(4-((2-thioxobenzo[d]oxazol-3(2H)-yl)methyl)piperazin-1-yl)-1,4-dihydroquinoline-3-carboxylic acid]",melting point,,187 to 189 °C
same,antiproliferative activity,[1],excellent antiproliferative activities
same,antifungal activity,[2],excellent antimicrobials activities
same,antibacterial activity,[3],excellent antimicrobials activities
same,antibacterial activity,[4],excellent antimicrobials activities
same,antibacterial activity,[5],excellent antimicrobials activities
same,antifungal activity,[6],excellent antimicrobials activities
same,antibacterial activity,[7],excellent antimicrobials activities
same,antiproliferative activity,[8],excellent antiproliferative activities
